Measured values published in patent US20240148821A1, “PHARMACEUTICAL USE OF CYCLIC PEPTIDE COMPOUND” (CHUGAI SEIYAKU KABUSHIKI KAISHA, priority 2021, published 2024).
Numbered stars: 1 amine (or outer) side, 2 acyl side, 3 side chain; on linkers, the order of the positions; unused ones are H or OH. Bridge positions count the residues as written; N and C are the ends. Square brackets hold non-standard residues; d marks the D form. Peptide text beside a SMILES is read from it. * marks the point of attachment. hPhe(3,5-F2-4-CF3) = N[C@@H](CCc1cc(F)c(C(F)(F)F)c(F)c1)C(=O)O; hPhe(3-Cl-4-CF3) = N[C@@H](CCc1ccc(C(F)(F)F)c(Cl)c1)C(=O)O; hPhe(3-F,4-CF3) = N[C@@H](CCc1ccc(C(F)(F)F)c(F)c1)C(=O)O; NEtPhe(4-CF3) = CCN[C@@H](Cc1ccc(C(F)(F)F)cc1)C(=O)O; NMePhe(4-CF3) = CN[C@@H](Cc1ccc(C(F)(F)F)cc1)C(=O)O; 3Oxa8azabicyclo(3.2.1)octane = C1CC2COCC1N2*; NEtPhe(4-Me) = CCN[C@@H](Cc1ccc(C)cc1)C(=O)O; NMedβ3hAla = C[C@H](CC(=O)[*:2])N(C)[*:1]; NMeGly(cPent) = CN[C@H](C(=O)O)C1CCCC1; Pro(4,4-F2) = O=C(O)[C@@H]1CC(F)(F)CN1; NMeCha = CN[C@@H](CC1CCCCC1)C(=O)O; NMehLeu = CN[C@@H](CCC(C)C)C(=O)O; Hyp = O=C(O)[C@@H]1C[C@@H](O)CN1; NMeChg = CN[C@H](C(=O)O)C1CCCCC1; NMeI = CC[C@H](C)[C@H](NC)C(=O)O; NMeD = CN[C@@H](CC(=O)O)C(=O)O; NMeL = CN[C@@H](CC(C)C)C(=O)O; NMeNle = CCCC[C@H](NC)C(=O)O; NMeV = CN[C@H](C(=O)O)C(C)C; d(β3hA) = C[C@@H](N)CC(=O)O; NMeS = CN[C@@H](CO)C(=O)O; NMeA = CN[C@@H](C)C(=O)O; NMeAib = CNC(C)(C)C(=O)O; Piperidide = C1CCN(*)CC1; dNMeA = CN[C@H](C)C(=O)O; Ac5c = NC1(C(=O)O)CCCC1; Aze = O=C(O)[C@@H]1CCN1; Ac4c = NC1(C(=O)O)CCC1; Sar = CNCC(=O)O; Propyl = CCC*

Each compound was assayed against protein-protein interaction between Kras and SOS1 (biotin-tagged human Kras loaded with GDP, His-tagged human SOS1) (Homo sapiens (Human), UniProt P01116, G12D) (assay: Protein-protein interaction inhibition between Kras and SOS1 (KrasG12D-SOS PPI) using AlphaScreen). Conditions: AlphaScreen; biotin-tagged human Kras loaded with GDP, His-tagged human SOS1; read-out: KRAS G12D-SOS PPI IC50.
Format: biochemical

Q: How did the IC50 turn out when `CC[C@H](C)[C@@H]1NC(=O)[C@H](CC(C)C)N(C)C(=O)C[C@@H](C(=O)N2CCCCC2)N(C)C(=O)[C@H](C(C)C)N(C)C(=O)C2(CCC2)NC(=O)[C@@H]2CCCN2C(=O)[C@H](CCc2ccc(C(F)(F)F)c(Cl)c2)NC(=O)CN(C)C(=O)[C@H](CC2CCCCC2)N(C)C(=O)[C@@H]2CCN2C(=O)[C@H](C)N(C)C1=O` [Compound 1672] ([NMeL]I[NMeA][Aze][NMeCha][Sar][hPhe(3-Cl-4-CF3)]P[Ac4c][NMeV][NMeD]-Piperidide; lactam N-11) was run?
A: 4.3 nM

Q: Which IC50 does the source give for `CC[C@H](C)[C@@H]1NC(=O)[C@H](C)N(C)C(=O)C[C@@H](C)N(C)C(=O)[C@H](CC(C)C)NC(=O)C(C)(C)N(C)C(=O)[C@H](CC(C)C)NC(=O)[C@H](CCc2ccc(C(F)(F)F)c(Cl)c2)NC(=O)[C@@H](C)N(C)C(=O)[C@H](CC2CCCCC2)N(C)C(=O)CN(C)C(=O)CN(C)C1=O` [Compound 1390] (cyclo(I[Sar][Sar][NMeCha][dNMeA][hPhe(3-Cl-4-CF3)]L[NMeAib]L[NMedβ3hAla][NMeA])) here?
A: 280 nM

Q: How did the IC50 turn out when `CC[C@H](C)[C@@H]1NC(=O)[C@H](C)N(C)C(=O)C[C@@H](C)N(C)C(=O)[C@H](CC(C)C)NC(=O)C(C)(C)N(C)C(=O)[C@H](CC(C)C)NC(=O)[C@H](CCc2ccc(C(F)(F)F)c(Cl)c2)NC(=O)[C@@H](C)N(C)C(=O)[C@H](Cc2ccc(C(F)(F)F)cc2)N(C)C(=O)CN(C)C(=O)CN(C)C1=O` [Compound 1385] (cyclo(I[Sar][Sar][NMePhe(4-CF3)][dNMeA][hPhe(3-Cl-4-CF3)]L[NMeAib]L[NMedβ3hAla][NMeA])) was run?
A: 200 nM

Q: How did the IC50 turn out when `CC[C@H](C)[C@@H]1NC(=O)[C@H](CC(C)C)N(C)C(=O)C[C@@H](C)N(C)C(=O)[C@H](C2CCCCC2)N(C)C(=O)C2(CCC2)NC(=O)[C@@H]2CC(F)(F)CN2C(=O)[C@H](CCc2cc(F)c(C(F)(F)F)c(F)c2)NC(=O)CN(C)C(=O)[C@H](Cc2ccc(C(F)(F)F)cc2)N(CC)C(=O)[C@@H]2CCN2C(=O)[C@H](C)NC1=O` [Compound 203] (cyclo(A[Aze][NEtPhe(4-CF3)][Sar][hPhe(3,5-F2-4-CF3)][Pro(4,4-F2)][Ac4c][NMeChg][NMedβ3hAla][NMeL]I)) was run?
A: 31 nM

Q: With `CCCOC[C@H]1C(=O)N(C)CC(=O)N[C@@H](CCc2ccc(C(F)(F)F)c(Cl)c2)C(=O)N2CCC[C@H]2C(=O)NC2(CCCC2)C(=O)N(C)[C@@H](C2CCCC2)C(=O)N(C)[C@H](C(=O)N2C3CCC2COC3)CC(=O)N(C)[C@@H](CCC(C)C)C(=O)N[C@@H]([C@@H](C)CC)C(=O)N[C@@H](C)C(=O)N2CC[C@H]2C(=O)N1C` [Compound 1326] ([NMehLeu]IA[Aze][NMeS](Propyl)[Sar][hPhe(3-Cl-4-CF3)]P[Ac5c][NMeGly(cPent)][NMeD]-{3Oxa8azabicyclo(3.2.1)octane}; lactam N-11) as the compound, how does the IC50 read?
A: 5.1 nM

Q: How did the IC50 turn out when `CC[C@H](C)[C@@H]1NC(=O)[C@H](CC(C)C)N(C)C(=O)C[C@@H](C)N(C)C(=O)[C@H](C2CCCCC2)N(C)C(=O)C2(CCCC2)NC(=O)[C@@H]2CC(F)(F)CN2C(=O)[C@H](CCc2cc(F)c(C(F)(F)F)c(F)c2)NC(=O)CN(C)C(=O)[C@H](Cc2ccc(C(F)(F)F)cc2)N(C)C(=O)[C@@H]2CCN2C(=O)[C@H](C)N(C)C1=O` [Compound 606] (cyclo([Ac5c][NMeChg][NMedβ3hAla][NMeL]I[NMeA][Aze][NMePhe(4-CF3)][Sar][hPhe(3,5-F2-4-CF3)][Pro(4,4-F2)])) was run?
A: 8.3 nM

Q: `CC[C@H](C)[C@@H]1NC(=O)[C@H](CC(C)C)N(C)C(=O)C[C@@H](C(=O)N2CCCCC2)N(C)C(=O)[C@H](C(C)C)N(C)C(=O)C2(CCCC2)NC(=O)[C@@H]2CCCN2C(=O)[C@H](CCc2ccc(C(F)(F)F)c(F)c2)NC(=O)CN(C)C(=O)[C@H](CC2CCCCC2)N(C)C(=O)[C@@H]2CCN2C(=O)CN(C)C1=O` [Compound 599] ([NMeL]I[Sar][Aze][NMeCha][Sar][hPhe(3-F,4-CF3)]P[Ac5c][NMeV][NMeD]-Piperidide; lactam N-11) was tested. Which IC50 did it give?
A: 12 nM

Q: `CCO[C@@H]1C[C@H]2C(=O)NC3(CCCC3)C(=O)N(C)[C@@H]([C@@H](C)CC)C(=O)N(C)[C@H](C)CC(=O)N(C)[C@@H](CC(C)C)C(=O)N[C@@H]([C@@H](C)CC)C(=O)N(C)[C@@H](C)C(=O)N3CC[C@H]3C(=O)N(CC)[C@@H](Cc3ccc(C)cc3)C(=O)N(C)CC(=O)N[C@@H](CCc3ccc(C(F)(F)F)c(Cl)c3)C(=O)N2C1` [Compound 951] (cyclo([Ac5c][NMeI][NMedβ3hAla][NMeL]I[NMeA][Aze][NEtPhe(4-Me)][Sar][hPhe(3-Cl-4-CF3)][Hyp](Et))) was tested. Which IC50 did it give?
A: 7.9 nM

Q: With `CC[C@H](C)[C@@H]1NC(=O)[C@H](CC(C)C)N(C)C(=O)C[C@@H](C)N(C)C(=O)[C@H]([C@@H](C)CC)N(C)C(=O)C2(CCCC2)NC(=O)[C@@H]2CCCN2C(=O)[C@H](CCc2ccc(C(F)(F)F)c(Cl)c2)NC(=O)CN(C)C(=O)[C@H](C2CCCC2)N(C)C(=O)[C@@H]2CCN2C(=O)[C@H](C)N(C)C1=O` [Compound 79] (cyclo([Ac5c][NMeI][NMedβ3hAla][NMeL]I[NMeA][Aze][NMeGly(cPent)][Sar][hPhe(3-Cl-4-CF3)]P)) as the compound, how does the IC50 read?
A: 9.3 nM

Q: `CCCC[C@H]1C(=O)N2CC[C@H]2C(=O)N(C)[C@@H](CC2CCCCC2)C(=O)N(C)CC(=O)N[C@@H](CCc2ccc(C(F)(F)F)c(Cl)c2)C(=O)N2CCC[C@H]2C(=O)NC2(CCCC2)C(=O)N(C)[C@@H](C(C)C)C(=O)N[C@H](C)CC(=O)N(C)[C@@H](CC(C)C)C(=O)N[C@@H]([C@@H](C)CC)C(=O)N1C` [Compound 1548] (cyclo([Ac5c][NMeV][d(β3hA)][NMeL]I[NMeNle][Aze][NMeCha][Sar][hPhe(3-Cl-4-CF3)]P)) was tested. Which IC50 did it give?
A: 140 nM
